From ChEMBL document CHEMBL5360648, “Identification of 5-HT2 Serotonin Receptor Modulators through the Synthesis of a Diverse, Tropane- and Quinuclidine-alkaloid-Inspired Compound Library” (J Med Chem, 2023)

Columns and labels:
[1] = target: T1, 5-hydroxytryptamine receptor 2A (Homo sapiens, UniProt P28223); assay: Antagonist activity at 5-HT2A receptor in HEK293 cells assessed as calcium mobilisation by Fluo-4 dye based assay; assay type: functional, cell-based
[2] = target: T2, 5-hydroxytryptamine receptor 2C (Homo sapiens, UniProt P28335); assay: Antagonist activity at 5-HT2C receptor in HEK293 cells assessed as calcium mobilisation by Fluo-4 dye based assay; assay type: functional, cell-based
T2 sequence (P28335 whole entry): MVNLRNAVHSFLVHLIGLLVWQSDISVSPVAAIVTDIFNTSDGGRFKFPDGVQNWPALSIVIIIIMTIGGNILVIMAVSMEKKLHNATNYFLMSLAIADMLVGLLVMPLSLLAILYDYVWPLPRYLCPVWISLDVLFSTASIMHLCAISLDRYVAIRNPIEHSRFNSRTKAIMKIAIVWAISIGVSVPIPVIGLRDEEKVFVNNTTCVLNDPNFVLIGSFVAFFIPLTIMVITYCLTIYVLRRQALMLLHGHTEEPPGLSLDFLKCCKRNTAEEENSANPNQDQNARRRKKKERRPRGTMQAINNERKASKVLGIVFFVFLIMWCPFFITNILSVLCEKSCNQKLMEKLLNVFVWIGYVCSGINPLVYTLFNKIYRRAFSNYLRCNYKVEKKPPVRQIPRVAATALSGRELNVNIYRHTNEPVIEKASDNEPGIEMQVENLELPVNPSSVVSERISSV

[3] = Antagonist activity at 5-HT-induced 5-HT2B signaling in CHO cells by IP1 assay; details: Cricetulus griseus
[4] = target: T3, Muscarinic acetylcholine receptor M5 (Homo sapiens) (UniProt P08912); assay: Inhibition of [3H]4-DAMP from binding to M5 receptor (unknown origin) at 10 uM relative to control
T3 sequence (whole entry): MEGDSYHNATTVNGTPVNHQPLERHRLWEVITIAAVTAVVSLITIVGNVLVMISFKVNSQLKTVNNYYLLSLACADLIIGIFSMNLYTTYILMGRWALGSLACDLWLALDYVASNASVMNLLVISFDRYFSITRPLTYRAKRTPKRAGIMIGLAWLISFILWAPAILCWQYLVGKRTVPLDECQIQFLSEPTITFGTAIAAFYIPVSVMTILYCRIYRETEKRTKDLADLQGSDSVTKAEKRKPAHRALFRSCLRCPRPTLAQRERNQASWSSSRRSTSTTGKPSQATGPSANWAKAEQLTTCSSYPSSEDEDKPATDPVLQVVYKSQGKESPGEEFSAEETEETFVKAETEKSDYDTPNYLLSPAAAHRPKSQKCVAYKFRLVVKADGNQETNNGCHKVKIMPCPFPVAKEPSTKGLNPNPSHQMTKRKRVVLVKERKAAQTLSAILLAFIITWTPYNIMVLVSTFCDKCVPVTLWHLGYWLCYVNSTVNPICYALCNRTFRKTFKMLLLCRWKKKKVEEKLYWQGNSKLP

[5] = target: 5-hydroxytryptamine receptor 5A (Homo sapiens) (UniProt P47898); assay: Inhibition of [3H]LSD from binding to 5-HT5A receptor (unknown origin) at 10 uM relative to control
5-hydroxytryptamine receptor 5A (Homo sapiens), sequence (P47898 whole entry): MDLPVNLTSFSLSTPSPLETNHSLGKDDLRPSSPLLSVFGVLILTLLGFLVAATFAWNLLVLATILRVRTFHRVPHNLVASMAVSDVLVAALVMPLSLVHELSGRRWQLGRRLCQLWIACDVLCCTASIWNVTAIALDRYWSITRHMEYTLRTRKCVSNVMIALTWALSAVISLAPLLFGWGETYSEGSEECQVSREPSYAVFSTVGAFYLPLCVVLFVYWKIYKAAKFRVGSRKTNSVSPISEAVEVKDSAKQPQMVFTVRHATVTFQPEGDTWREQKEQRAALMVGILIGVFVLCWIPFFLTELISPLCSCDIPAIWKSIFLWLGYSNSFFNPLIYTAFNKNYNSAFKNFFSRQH

Homo sapiens = organism: Homo sapiens; assay: Inhibition of [3H]BRL43694 from binding to 5-HT3 receptor (unknown origin) at 10 uM relative to control
[6] = target: T4, Muscarinic acetylcholine receptor M2 (Homo sapiens) (UniProt P08172); assay: Inhibition of [3H]AF-DX384 from binding to M2 receptor (unknown origin) at 10 uM relative to control
T4 sequence (whole entry): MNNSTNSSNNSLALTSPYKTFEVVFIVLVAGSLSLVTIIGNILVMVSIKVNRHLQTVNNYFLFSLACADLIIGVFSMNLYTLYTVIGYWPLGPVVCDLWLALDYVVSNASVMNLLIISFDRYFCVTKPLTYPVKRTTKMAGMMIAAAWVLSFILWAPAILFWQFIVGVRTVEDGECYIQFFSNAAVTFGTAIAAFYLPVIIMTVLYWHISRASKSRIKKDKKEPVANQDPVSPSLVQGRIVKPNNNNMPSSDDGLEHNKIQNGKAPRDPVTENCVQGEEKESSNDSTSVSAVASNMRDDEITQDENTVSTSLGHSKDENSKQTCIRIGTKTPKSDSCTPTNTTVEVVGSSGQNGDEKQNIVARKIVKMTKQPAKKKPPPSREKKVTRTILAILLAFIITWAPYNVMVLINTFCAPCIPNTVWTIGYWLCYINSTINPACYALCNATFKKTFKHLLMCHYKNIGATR

[7] = target: 5-hydroxytryptamine receptor 6 (Homo sapiens) (UniProt P50406); assay: Inhibition of [3H]LSD from binding to 5-HT6 receptor (unknown origin) at 10 uM relative to control
5-hydroxytryptamine receptor 6 (Homo sapiens), sequence (P50406 whole entry): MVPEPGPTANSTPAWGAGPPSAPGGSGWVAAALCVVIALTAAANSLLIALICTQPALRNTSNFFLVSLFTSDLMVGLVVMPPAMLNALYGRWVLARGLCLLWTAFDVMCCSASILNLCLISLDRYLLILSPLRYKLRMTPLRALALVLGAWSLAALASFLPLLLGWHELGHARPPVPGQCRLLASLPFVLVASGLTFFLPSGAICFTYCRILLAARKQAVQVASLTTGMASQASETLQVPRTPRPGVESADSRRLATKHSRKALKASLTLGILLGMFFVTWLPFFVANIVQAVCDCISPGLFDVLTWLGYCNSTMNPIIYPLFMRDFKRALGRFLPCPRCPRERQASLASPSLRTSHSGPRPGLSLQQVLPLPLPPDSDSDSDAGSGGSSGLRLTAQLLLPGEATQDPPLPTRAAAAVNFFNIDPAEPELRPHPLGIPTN

[8] = target: T5, 5-hydroxytryptamine receptor 1A (Homo sapiens) (UniProt P08908); assay: Inhibition of [3H]-8-OH-DPAT from binding to 5-HT1A receptor (unknown origin) at 10 uM relative to control
T5 sequence (whole entry): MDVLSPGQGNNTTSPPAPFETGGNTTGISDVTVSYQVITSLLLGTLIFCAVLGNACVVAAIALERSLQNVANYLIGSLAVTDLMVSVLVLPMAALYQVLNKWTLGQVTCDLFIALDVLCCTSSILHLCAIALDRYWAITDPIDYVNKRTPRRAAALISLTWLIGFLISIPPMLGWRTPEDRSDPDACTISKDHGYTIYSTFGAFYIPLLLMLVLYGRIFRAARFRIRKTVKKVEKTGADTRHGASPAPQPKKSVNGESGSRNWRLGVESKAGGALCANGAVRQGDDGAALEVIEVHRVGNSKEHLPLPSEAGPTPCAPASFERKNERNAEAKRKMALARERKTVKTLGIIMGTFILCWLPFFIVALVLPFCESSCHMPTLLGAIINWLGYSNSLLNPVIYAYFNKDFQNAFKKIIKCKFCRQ

[9] = target: 5-hydroxytryptamine receptor 7 (Homo sapiens) (UniProt P34969); assay: Inhibition of [3H]LSD from binding to 5-HT7 receptor (unknown origin) at 1 uM relative to control
5-hydroxytryptamine receptor 7 (Homo sapiens), sequence (P34969 whole entry): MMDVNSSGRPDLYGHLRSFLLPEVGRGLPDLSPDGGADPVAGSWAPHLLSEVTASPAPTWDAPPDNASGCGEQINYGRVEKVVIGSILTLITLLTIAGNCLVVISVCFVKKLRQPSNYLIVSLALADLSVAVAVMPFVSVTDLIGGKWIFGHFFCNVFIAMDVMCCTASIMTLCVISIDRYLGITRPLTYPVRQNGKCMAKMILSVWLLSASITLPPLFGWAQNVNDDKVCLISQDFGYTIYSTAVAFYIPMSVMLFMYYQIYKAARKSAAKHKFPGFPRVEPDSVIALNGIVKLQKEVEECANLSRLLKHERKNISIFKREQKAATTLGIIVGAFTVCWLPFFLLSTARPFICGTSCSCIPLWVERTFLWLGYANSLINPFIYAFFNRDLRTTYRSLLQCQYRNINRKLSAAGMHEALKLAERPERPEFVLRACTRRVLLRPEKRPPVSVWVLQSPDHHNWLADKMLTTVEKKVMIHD

[10] = target: T6, Muscarinic acetylcholine receptor M1 (Homo sapiens) (UniProt P11229); assay: Inhibition of [3H]pirenzepine from binding to M1 receptor (unknown origin) at 10 uM relative to control
T6 sequence (whole entry): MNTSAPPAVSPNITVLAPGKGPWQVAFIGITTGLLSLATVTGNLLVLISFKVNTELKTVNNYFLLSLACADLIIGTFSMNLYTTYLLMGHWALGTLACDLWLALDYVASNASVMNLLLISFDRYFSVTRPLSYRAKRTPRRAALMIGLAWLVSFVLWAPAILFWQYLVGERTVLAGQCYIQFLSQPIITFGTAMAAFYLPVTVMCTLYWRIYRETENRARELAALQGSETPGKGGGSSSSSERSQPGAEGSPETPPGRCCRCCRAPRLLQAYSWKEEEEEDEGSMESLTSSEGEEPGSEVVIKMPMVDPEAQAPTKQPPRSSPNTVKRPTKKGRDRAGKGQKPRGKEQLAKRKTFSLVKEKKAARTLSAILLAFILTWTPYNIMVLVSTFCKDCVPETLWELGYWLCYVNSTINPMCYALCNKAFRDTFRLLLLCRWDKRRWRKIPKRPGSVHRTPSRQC

[11] = target: 5-hydroxytryptamine receptor 4 (Homo sapiens) (UniProt Q13639); assay: Inhibition of [3H]GR113808 from binding to 5-HT4E receptor (unknown origin) at 10 uM relative to control
5-hydroxytryptamine receptor 4 (Homo sapiens), sequence (Q13639 whole entry): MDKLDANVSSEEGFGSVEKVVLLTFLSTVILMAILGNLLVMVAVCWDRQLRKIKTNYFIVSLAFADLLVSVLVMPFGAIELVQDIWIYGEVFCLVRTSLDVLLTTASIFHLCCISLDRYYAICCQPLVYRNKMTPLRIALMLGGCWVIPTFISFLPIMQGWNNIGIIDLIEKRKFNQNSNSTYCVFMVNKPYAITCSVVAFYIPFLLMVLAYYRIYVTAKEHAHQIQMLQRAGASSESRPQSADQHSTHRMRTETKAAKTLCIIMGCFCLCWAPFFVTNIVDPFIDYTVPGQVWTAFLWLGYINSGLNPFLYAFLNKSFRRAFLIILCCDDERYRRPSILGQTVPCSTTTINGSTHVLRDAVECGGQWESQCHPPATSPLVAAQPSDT

[12] = target: T7, Muscarinic acetylcholine receptor M4 (Homo sapiens) (UniProt P08173); assay: Inhibition of [3H]4-DAMP from binding to M4 receptor (unknown origin) at 10 uM relative to control
T7 sequence (whole entry): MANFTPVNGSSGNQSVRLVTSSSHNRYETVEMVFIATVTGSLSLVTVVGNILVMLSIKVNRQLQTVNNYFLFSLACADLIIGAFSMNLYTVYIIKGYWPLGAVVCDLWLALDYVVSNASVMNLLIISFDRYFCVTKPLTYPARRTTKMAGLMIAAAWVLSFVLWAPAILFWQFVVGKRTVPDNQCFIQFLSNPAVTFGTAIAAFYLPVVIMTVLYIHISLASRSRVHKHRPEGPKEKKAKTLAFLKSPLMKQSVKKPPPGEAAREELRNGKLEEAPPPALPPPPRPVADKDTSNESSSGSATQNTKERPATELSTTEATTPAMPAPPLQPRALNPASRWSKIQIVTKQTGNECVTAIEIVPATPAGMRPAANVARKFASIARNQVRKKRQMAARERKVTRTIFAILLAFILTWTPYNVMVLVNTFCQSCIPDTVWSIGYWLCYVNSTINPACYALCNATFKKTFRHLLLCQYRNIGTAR

[13] = target: Muscarinic acetylcholine receptor M3 (Homo sapiens) (UniProt P20309); assay: Inhibition of [3H]4-DAMP from binding to M3 receptor (unknown origin) at 10 uM relative to control
Muscarinic acetylcholine receptor M3 (Homo sapiens), sequence (P20309 whole entry, looked up): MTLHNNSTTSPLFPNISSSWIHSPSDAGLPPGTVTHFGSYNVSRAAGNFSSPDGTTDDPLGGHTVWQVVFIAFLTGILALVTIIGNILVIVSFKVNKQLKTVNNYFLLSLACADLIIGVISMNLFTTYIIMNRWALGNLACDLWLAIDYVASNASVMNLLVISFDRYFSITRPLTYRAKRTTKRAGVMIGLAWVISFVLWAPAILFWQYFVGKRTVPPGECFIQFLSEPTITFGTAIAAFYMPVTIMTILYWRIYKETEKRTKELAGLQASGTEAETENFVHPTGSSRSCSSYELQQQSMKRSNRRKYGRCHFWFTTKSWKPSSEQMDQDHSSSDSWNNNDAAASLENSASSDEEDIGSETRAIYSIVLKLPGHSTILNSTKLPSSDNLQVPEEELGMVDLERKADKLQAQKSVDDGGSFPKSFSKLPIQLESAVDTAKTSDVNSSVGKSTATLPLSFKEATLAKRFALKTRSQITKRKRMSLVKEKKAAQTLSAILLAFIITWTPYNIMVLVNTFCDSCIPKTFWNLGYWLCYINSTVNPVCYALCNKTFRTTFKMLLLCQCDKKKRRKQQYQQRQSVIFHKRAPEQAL

[14] = target: 5-hydroxytryptamine receptor 7 (Homo sapiens) (UniProt P34969); assay: Inhibition of [3H]LSD from binding to 5-HT7 receptor (unknown origin) at 10 uM relative to control
[15] = target: 5-hydroxytryptamine receptor 2B (Homo sapiens) (UniProt P41595); assay: Inhibition of [3H]mesulergine from binding to 5-HT2B receptor (unknown origin) at 10 uM relative to control
5-hydroxytryptamine receptor 2B (Homo sapiens), sequence (P41595 whole entry): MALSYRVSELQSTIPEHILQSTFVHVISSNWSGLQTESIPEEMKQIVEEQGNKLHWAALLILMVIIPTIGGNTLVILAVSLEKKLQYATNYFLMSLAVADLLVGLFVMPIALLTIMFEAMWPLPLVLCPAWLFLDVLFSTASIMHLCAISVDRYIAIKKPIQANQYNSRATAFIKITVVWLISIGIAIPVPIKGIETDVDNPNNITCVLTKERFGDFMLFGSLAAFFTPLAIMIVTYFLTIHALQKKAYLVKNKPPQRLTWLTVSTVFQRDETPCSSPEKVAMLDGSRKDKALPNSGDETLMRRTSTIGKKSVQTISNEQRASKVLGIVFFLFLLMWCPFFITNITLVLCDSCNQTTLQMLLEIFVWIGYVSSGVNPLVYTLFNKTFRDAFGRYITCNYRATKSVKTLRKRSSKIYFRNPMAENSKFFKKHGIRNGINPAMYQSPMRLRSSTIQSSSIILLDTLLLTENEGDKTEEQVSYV

[16] = target: T1, 5-hydroxytryptamine receptor 2A; assay: Agonist activity at 5-HT2A receptor in HEK293 cells assessed as calcium mobilisation by Fluo-4 dye based assay
[17] = target: Neuronal acetylcholine receptor; alpha3/beta4 (Rattus norvegicus) (UniProt P04757+P12392); assay: Inhibition of [3H]epibatidine from binding to rat nACh receptor alpha3beta4 expressed in HEK293 cell membrane at 10 uM incubated for 2.5 hrs by liquid scintillation counting analysis relative to control; assay type: cell membranes
[18] = target: Neuronal acetylcholine receptor; alpha4/beta2 (Homo sapiens) (UniProt P17787+P43681); assay: Inhibition of [3H]epibatidine from binding to human nACh receptor alpha4beta2 expressed in HEK293 cell membrane at 10 uM incubated for 2.5 hrs by liquid scintillation counting analysis relative to control; assay type: cell membranes

T1 sequence (P28223 whole entry): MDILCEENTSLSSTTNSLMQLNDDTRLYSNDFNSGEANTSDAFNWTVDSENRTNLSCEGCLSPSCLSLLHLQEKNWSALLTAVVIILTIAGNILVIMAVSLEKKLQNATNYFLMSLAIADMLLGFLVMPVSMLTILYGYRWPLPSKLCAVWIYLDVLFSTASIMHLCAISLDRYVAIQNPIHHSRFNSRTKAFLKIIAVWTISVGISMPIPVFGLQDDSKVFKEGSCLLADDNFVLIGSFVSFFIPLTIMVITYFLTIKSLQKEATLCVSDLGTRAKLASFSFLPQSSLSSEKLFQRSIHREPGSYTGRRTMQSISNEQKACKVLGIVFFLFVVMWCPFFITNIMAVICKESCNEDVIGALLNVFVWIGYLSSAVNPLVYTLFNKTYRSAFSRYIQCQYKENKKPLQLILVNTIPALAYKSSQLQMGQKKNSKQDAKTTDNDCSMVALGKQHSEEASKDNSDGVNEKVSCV

Row | Compound | IC50 [1] | IC50 [2] | also measured
1 | COc1ccc2c(c1)C(=O)C[C@]1(CN3CCC1CC3)O2 | > 10 µM | > 10000 nM | –
2 | O=C1CC2(CN3CCC2CC3)Oc2c1ccc1ccccc21 (racemic) | 20 µM | 180 nM | –
3 | O=C1C[C@]2(CN3CCC2CC3)Oc2c1ccc1ccccc21 | 50 µM | 95 nM | IC50 [3]: 135 nM; inhibition [4]: 69%; inhibition [5]: 64%; inhibition (Homo sapiens): 85%; inhibition [6]: 31%; inhibition [7]: 57%; inhibition [8]: 57%; inhibition [9]: 67%; inhibition [10]: 67%; inhibition [11]: 42%; inhibition [12]: 67%; inhibition [13]: 27%; inhibition [14]: 92%; inhibition [15]: 99%
4 | O=C1C[C@]2(CN3CCC2CC3)Oc2cc(Br)ccc21 | 15 µM | 2300 nM | –
5 | COc1cccc2c1C(=O)C[C@]1(CN3CCC1CC3)O2 | > 100 µM | 5000 nM | –
6 | COc1ccc2c(c1)O[C@]1(CC2=O)CN2CCC1CC2 | > 30 µM | 520 nM | EC50 [16]: > 30 µM
7 | O=C1C[C@]2(CN3CCC2CC3)Oc2ccc(F)cc21 | > 10 µM | > 10000 nM | –
8 | O=C1C[C@]2(CN3CCC2CC3)Oc2ccccc21 | > 10 µM | > 10000 nM | –
9 | O=C1C[C@]2(CN3CCC2CC3)Oc2cc(OCC3CC3)ccc21 | > 100 µM | 1500 nM | –
10 | O=C1C[C@@]2(CN3CCC2CC3)Oc2c1ccc1ccccc21 | > 100 µM | 50000 nM | –
11 | Cc1ccc2c(c1)O[C@]1(CC2=O)CN2CCC1CC2 | > 100 µM | 2500 nM | –
12 | O=C1C[C@]2(CN3CCC2CC3)Oc2cc(O)ccc21 | > 100 µM | 2500 nM | –
13 | O=C1C[C@]2(CN3CCC2CC3)Oc2ccc(Br)cc21 | > 10 µM | > 10000 nM | –
14 | O=C1NC2(CN3CCC2CC3)Nc2ccccc21 (stereo not given) | – | – | inhibition [17]: > 50%; inhibition [18]: > 50%
15 | O=C1C[C@]2(CN3CCC2CC3)Oc2cc3ccccc3cc21 | 50 µM | > 100000 nM | –
